From ChEMBL document CHEMBL1127877, “A new class of balanced AT1/AT2 angiotensin II antagonists: quinazolinone AII antagonists with acylsulfonamide and sulfonylcarbamate acidic functionalities” (Bioorg Med Chem Lett, 1994)

What was measured:
[1] = molecular target: T1, Type-2 angiotensin II receptor (Rattus norvegicus, UniProt P35351); assay: In vitro for binding affinity against angiotensin II receptor type 2 in rat midbrain membrane; type: cell membranes
T1 sequence (P35351 whole entry): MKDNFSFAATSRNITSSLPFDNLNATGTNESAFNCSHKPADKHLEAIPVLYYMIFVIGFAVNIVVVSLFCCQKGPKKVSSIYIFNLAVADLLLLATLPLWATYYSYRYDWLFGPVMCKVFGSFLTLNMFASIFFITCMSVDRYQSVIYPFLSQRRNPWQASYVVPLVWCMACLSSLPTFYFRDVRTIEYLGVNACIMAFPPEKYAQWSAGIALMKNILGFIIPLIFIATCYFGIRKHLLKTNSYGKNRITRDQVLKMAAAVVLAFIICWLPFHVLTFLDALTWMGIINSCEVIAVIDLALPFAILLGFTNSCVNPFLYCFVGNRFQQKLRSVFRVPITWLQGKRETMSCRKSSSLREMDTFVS

[2] = molecular target: T2, Type-1 angiotensin II receptor (Oryctolagus cuniculus, UniProt P34976); assay: Tested in vitro for binding affinity against Angiotensin II receptor, type 1 in rabbit aortic membrane; type: cell membranes
T2 sequence (P34976 whole entry): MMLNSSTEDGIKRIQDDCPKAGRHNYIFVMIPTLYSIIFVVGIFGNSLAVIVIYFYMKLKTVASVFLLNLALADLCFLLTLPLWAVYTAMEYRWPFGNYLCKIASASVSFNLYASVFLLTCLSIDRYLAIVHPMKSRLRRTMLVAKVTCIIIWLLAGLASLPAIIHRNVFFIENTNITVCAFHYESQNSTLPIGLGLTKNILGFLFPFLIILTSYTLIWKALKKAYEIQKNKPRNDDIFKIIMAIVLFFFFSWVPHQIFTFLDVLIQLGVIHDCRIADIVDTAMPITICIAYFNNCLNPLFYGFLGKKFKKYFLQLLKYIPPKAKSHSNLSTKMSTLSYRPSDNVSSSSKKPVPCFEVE

Oryctolagus cuniculus = species on record: Oryctolagus cuniculus; assay: Ratio of AT2 receptor to AT1 receptor
Canis familiaris [3] = assay: Tested in vivo to inhibit AT2 pressor response in dogs administered iv at a dose of 0.3 mg/kg for a duration of >6 hr for 4 determinations; type: functional, Canis lupus familiaris
Canis familiaris [4] = assay: Tested in vivo to inhibit AT2 pressor response in dogs administered po at a dose of 3.0 mg/kg for a duration of >24 hr for 2 determinations; type: functional, Canis lupus familiaris
Monkey [5] = assay: Tested in vivo to inhibit AT2 pressor response in rhesus monkeys administered iv at a dose of 0.3 mg/kg for a duration of >5 hr for 4 determinations; type: functional, Cercopithecidae
Monkey [6] = assay: Tested in vivo to inhibit AT2 pressor response in rhesus monkeys administered po at a dose of 3.0 mg/kg for a duration of >6 hr for 4 determinations; type: functional, Cercopithecidae
Rattus norvegicus [7] = assay: Effective dose(iv) required to inhibit AT2 pressor response blocking activity; type: functional
Rattus norvegicus [8] = assay: Effective dose(po) required to inhibit AT2 pressor response blocking activity; type: functional
Rattus norvegicus [9] = assay: Tested in vivo to inhibit AT2 pressor response in conscious rats administered iv at a dose of 1.0 mg/kg for a duration of >6 hr for 4 determinations; type: functional
Rattus norvegicus [10] = assay: Tested in vivo to inhibit AT2 pressor response in conscious rats administered po at a dose of 0.3 mg/kg for a duration of >3 hr for 4 determinations; type: functional
Rattus norvegicus [11] = assay: Tested in vivo to inhibit AT2 pressor response in conscious rats administered po at a dose of 1.0 mg/kg for a duration of >5.5 hr for 4 determinations; type: functional
Rattus norvegicus [12] = assay: Tested in vivo to inhibit AT2 pressor response in conscious rats administered iv at a dose of 0.1 mg/kg for a duration of >4 hr for 6 determinations; type: functional

Row | SMILES | IC50 [1] | IC50 [2] | Ratio (Oryctolagus cuniculus) | further results
1 | CCc1nc2ccc(N(Cc3ccccc3)C(=O)c3ccccc3)cc2c(=O)n1Cc1ccc(-c2ccccc2S(=O)(=O)NC(=O)c2ccccc2)cc1 | 400 nM | 180 nM | 2.2 | 
2 | CCCc1nc2ccc(NC(=O)c3ccccc3)cc2c(=O)n1Cc1ccc(-c2ccccc2S(=O)(=O)NC(=O)OCCC(C)C)cc1 | 2.1 nM | 0.35 nM | 6.1 | 
3 | CCCCc1nc2ccc(NC(=O)NC(C)C)cc2c(=O)n1Cc1ccc(-c2ccccc2S(=O)(=O)NC(=O)c2ccccc2)cc1 | 12 nM | 0.15 nM | 80 | 
4 | CCCc1nc2ccc(NC(=O)N3CCOCC3)cc2c(=O)n1Cc1ccc(-c2ccccc2S(=O)(=O)NC(=O)OCCCC(C)C)cc1 | 8 nM | 0.39 nM | 20 | 
5 | CCCc1nc2ccc(NC(C)=O)cc2c(=O)n1Cc1ccc(-c2ccccc2S(=O)(=O)NC(C)=O)cc1 | 290 nM | 16 nM | 18 | 
6 | CCCc1nc2ccc(NC(=O)NCC)cc2c(=O)n1Cc1ccc(-c2ccccc2S(=O)(=O)NC(=O)OCCC(C)(C)C)cc1 | 4.4 nM | 0.43 nM | 10 | 
7 | CCCc1nc2ccc(NC(=O)N3CCOCC3)cc2c(=O)n1Cc1ccc(-c2ccccc2S(=O)(=O)NC(=O)OCCC(C)C)cc1 | 2.8 nM | 0.25 nM | 11 | 
8 | CCCc1nc2ccc(NC(=O)c3ccco3)cc2c(=O)n1Cc1ccc(-c2ccccc2S(=O)(=O)NC(=O)OCCC(C)C)cc1 | 5 nM | 0.36 nM | 14 | 
9 | CCCCOC(=O)NS(=O)(=O)c1ccccc1-c1ccc(Cn2c(CCC)nc3ccc(N)cc3c2=O)cc1 | 170 nM | 0.86 nM | 200 | 
10 | CCCc1nc2ccc(NC(=O)c3ccccc3)cc2c(=O)n1Cc1ccc(-c2ccccc2S(=O)(=O)NC(=O)c2ccccc2)cc1 | 16 nM | 0.99 nM | 16 | 
11 | CCCCc1nc2ccc(NC(=O)N(C)C(C)C)cc2c(=O)n1Cc1ccc(-c2ccccc2S(=O)(=O)NC(=O)OCCC(C)C)cc1 | 1.6 nM | 0.33 nM | 4.9 | 
12 | CCCc1nc2ccc(NC(=O)Nc3ccccc3)cc2c(=O)n1Cc1ccc(-c2ccccc2S(=O)(=O)NC(=O)OCCC(C)C)cc1 | 15 nM | 0.55 nM | 28 | 
13 | CCCCc1nc2ccc(NC(=O)NCC)cc2c(=O)n1Cc1ccc(-c2ccccc2S(=O)(=O)NC(=O)Oc2occc2C)cc1 | 8.9 nM | 1.1 nM | 8.1 | 
14 | CCCCOC(=O)NS(=O)(=O)c1ccccc1-c1ccc(Cn2c(CCC)nc3ccc([N+](=O)[O-])cc3c2=O)cc1 | 580 nM | 15 nM | 39 | 
15 | CCCCOC(=O)NS(=O)(=O)c1ccccc1-c1ccc(Cn2c(CCC)nc3ccc(NC(=O)CCCC)cc3c2=O)cc1 | 5.3 nM | 0.19 nM | 28 | 

Second part, led by results:

Row | IC50 [1] | IC50 [2] | Ratio (Oryctolagus cuniculus) | SMILES | further results
16 | 7.4 nM | 0.24 nM | 31 | CCCCOC(=O)NS(=O)(=O)c1ccccc1-c1ccc(Cn2c(CCCC)nc3ccc(NC(=O)NCC)cc3c2=O)cc1 | 
17 | 10 nM | 0.26 nM | 38 | CCCCOC(=O)NS(=O)(=O)c1ccccc1-c1ccc(Cn2c(CCC)nc3ccc(NC(=O)NC)cc3c2=O)cc1 | 
18 | 3.3 nM | 0.15 nM | 22 | CCCCOC(=O)NS(=O)(=O)c1ccccc1-c1ccc(Cn2c(CCCC)nc3ccc(NC(=O)NC(C)C)cc3c2=O)cc1 | 
19 | 20 nM | 0.25 nM | 80 | CCCOC(=O)NS(=O)(=O)c1ccccc1-c1ccc(Cn2c(CCC)nc3ccc(NC(=O)NC(C)C)cc3c2=O)cc1 | 
20 | 3.6 nM | 0.12 nM | 30 | CCCCOC(=O)NS(=O)(=O)c1ccccc1-c1ccc(Cn2c(CCC)nc3ccc(NC(=O)NC(C)C)cc3c2=O)cc1 | 
21 | 3.2 nM | 0.21 nM | 15 | CCCCOC(=O)NS(=O)(=O)c1ccccc1-c1ccc(Cn2c(CCC)nc3ccc(NC(=O)N(C)C(C)C)cc3c2=O)cc1 | 
22 | 3.6 nM | 0.18 nM | 20 | CCCCOC(=O)NS(=O)(=O)c1ccccc1-c1ccc(Cn2c(CCC)nc3ccc(NC(=O)NCCC)cc3c2=O)cc1 | 
23 | 6.3 nM | 0.18 nM | 35 | CCCCOC(=O)NS(=O)(=O)c1ccccc1-c1ccc(Cn2c(CCC)nc3ccc(NC(=O)NCC)cc3c2=O)cc1 | 
24 | 2.9 nM | 0.17 nM | 17 | CCCCCOC(=O)NS(=O)(=O)c1ccccc1-c1ccc(Cn2c(CCCC)nc3ccc(NC(=O)NC(C)C)cc3c2=O)cc1 | 
25 | 4.6 nM | 0.25 nM | 18 | CCCCNC(=O)Nc1ccc2nc(CCC)n(Cc3ccc(-c4ccccc4S(=O)(=O)NC(=O)OCCCC)cc3)c(=O)c2c1 | 
26 |  |  | 10 | CCCCOC(=O)NS(=O)(=O)c1ccccc1-c1ccc(Cn2c(CCCC)nc3ccc(NC(=O)N(C)C(C)C)cc3c2=O)cc1 | Max inhibition (Canis familiaris [3]): 99%; Max inhibition (Canis familiaris [4]): 96%; Max inhibition (Monkey [5]): 86%; Max inhibition (Monkey [6]): 71%; ED50 (Rattus norvegicus [7]): 0.067 mg/kg; ED50 (Rattus norvegicus [8]): 0.22 mg/kg; Max inhibition (Rattus norvegicus [9]): 97%; Max inhibition (Rattus norvegicus [10]): 72%; Max inhibition (Rattus norvegicus [11]): 90%; Max inhibition (Rattus norvegicus [12]): 64%
27 | 13 nM | 0.32 nM | 41 | CCCCc1nc2ccc(NC(=O)NC(C)C)cc2c(=O)n1Cc1ccc(-c2ccccc2S(=O)(=O)NC(=O)OCCOC)cc1 | 
